One test concerns the target T1, human recombinant HDAC1 (Homo sapiens, UniProt Q13547).
T1 construct: purchased Enzo Life Science BML-SE456
Kind of test: HDAC1 enzyme activity inhibition assay (HDAC Fluorimetric Drug Discovery Kit). The class given is biochemical. The following applies: 0.3 μg enzyme, 10 μM substrate, 30° C., 60 minutes. The procedure:
In order to examine the HDAC6 selectivity of the compounds of formula I of the present invention by HDAC1 and HDAC6 enzymatic activity inhibition assays, an experiment was performed using a conventional substance as a control.
HDAC enzyme activity was measured using a HDAC Fluorimetric Drug Discovery Kit (BML-AK511, 516, Enzo Life Science). For the HDAC1 enzyme activity test, human recombinant HDAC1 (BML-SE456) was used as an enzyme source, and Fluor de Lys®-“SIRT1 (BNL-KI177) was used as a substrate. A 5-fold dilution of the compound was seeded into a 96-well plate, and then 0.3 μg of the enzyme and 10 μM of the substrate were added to each well of the plate and allowed to react at 30° C. for 60 minutes. Then, Fluor de Lys®-Developer II (BML-KI176) was added thereto and allowed to react for 30 minutes, after which the fluorescence value (Ex 360, Em 460) was measured using a multi-plate reader (Flexstation 3, Molecular Device). The HDAC6 enzyme was tested using human recombinant HDAC6 (382180) (Calbiochem) according to the same protocol as the HDAC1 enzyme activity test method. Based on the resulting values, each IC50 value was calculated using GraphPad Prism4.0 program.

In a further test the target is T2, human recombinant HDAC6 (Homo sapiens, UniProt Q9UBN7).
T2 construct: purchased Calbiochem 382180
T2 sequence (Q9UBN7 1-1215): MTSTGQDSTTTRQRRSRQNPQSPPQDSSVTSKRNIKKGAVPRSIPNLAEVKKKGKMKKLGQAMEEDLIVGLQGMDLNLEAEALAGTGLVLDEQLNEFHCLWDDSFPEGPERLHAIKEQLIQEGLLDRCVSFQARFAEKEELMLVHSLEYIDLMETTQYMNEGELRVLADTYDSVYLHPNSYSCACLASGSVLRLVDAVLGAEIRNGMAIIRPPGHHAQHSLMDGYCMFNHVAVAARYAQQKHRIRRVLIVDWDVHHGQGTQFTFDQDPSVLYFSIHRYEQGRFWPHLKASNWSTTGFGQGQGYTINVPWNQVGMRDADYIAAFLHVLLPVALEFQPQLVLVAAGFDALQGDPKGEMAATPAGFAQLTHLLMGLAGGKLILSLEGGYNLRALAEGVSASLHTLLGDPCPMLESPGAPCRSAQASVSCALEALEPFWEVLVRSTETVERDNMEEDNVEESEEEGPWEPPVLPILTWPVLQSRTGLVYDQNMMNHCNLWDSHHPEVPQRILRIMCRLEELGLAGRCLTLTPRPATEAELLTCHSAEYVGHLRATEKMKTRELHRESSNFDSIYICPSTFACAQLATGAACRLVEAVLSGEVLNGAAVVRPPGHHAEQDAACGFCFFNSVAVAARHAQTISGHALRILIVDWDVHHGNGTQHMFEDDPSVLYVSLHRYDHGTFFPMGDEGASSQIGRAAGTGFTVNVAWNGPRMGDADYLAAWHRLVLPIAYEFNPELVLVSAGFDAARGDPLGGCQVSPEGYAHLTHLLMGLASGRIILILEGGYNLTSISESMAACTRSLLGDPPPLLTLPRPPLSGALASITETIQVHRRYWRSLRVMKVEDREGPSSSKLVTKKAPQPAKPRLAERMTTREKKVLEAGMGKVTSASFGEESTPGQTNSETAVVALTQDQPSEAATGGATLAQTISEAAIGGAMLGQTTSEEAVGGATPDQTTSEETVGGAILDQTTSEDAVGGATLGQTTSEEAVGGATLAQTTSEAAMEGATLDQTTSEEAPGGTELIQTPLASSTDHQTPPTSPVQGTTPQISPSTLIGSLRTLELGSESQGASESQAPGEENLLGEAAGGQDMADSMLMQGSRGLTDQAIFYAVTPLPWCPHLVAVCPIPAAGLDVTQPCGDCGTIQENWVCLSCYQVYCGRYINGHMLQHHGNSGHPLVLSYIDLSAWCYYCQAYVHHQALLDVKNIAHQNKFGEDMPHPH
Kind of test: HDAC6 enzyme activity inhibition assay (HDAC Fluorimetric Drug Discovery Kit). The following applies: for HDAC6 selectivity (fold): HDAC1 vs HDAC6; for IC50: same protocol as the HDAC1 enzyme activity test. Format: biochemical. A digest of the protocol: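 Recombinant enzyme (0.3 μg) was incubated with 5-fold serially diluted compound and 10 μM Fluor de Lys-SIRT1 substrate for 60 min at 30° C. Developer II was then added for 30 min, fluorescence read at Ex 360/Em 460, and IC50 values were calculated.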

T1 sequence (Q13547 whole entry): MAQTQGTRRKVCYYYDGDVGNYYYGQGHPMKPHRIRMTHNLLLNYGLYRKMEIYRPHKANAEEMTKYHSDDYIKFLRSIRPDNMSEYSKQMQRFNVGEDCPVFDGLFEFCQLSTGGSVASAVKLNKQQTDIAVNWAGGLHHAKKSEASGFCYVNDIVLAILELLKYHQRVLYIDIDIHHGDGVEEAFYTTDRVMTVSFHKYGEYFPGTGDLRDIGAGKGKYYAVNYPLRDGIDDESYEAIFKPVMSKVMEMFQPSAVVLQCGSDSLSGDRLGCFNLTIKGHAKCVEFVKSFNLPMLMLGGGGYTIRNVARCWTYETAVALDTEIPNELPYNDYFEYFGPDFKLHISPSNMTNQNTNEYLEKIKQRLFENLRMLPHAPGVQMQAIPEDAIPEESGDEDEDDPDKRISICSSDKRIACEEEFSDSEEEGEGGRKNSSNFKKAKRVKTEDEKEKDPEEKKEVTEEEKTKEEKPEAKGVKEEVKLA

A word on the IC50: it is the point on the concentration scale where inhibition reaches its midpoint. On to `O=S1(=O)CCC(S(=O)(=O)N(Cc2ccc(-c3nnc(C(F)F)o3)cn2)c2ccc(F)c(Cl)c2)CC1` [Compound 11497, N-(3-chloro-4-fluorophenyl)-N-((5-(5-(difluoromethyl)-1,3,4-oxadiazol-2-yl)pyridin-2-yl)methyl)tetrahydro-2H-thiopyran-4-sulfonamide 1,1-dioxide], for which the IC50 at human recombinant HDAC1 was found to be 21.8 µM. Moreover, on human recombinant HDAC6, the “HDAC6 selectivity (fold)” value stood at 2727 fold and the IC50 is 0.008 µM.
Regarding `O=S(=O)(C1CCN(C2COC2)CC1)N(Cc1ccc(-c2nnc(C(F)F)o2)cn1)c1ccc(F)c(Cl)c1` [Compound 11501, N-(3-chloro-4-fluorophenyl)-N-((5-(5-(difluoromethyl)-1,3,4-oxadiazol-2-yl)pyridin-2-yl)methyl)-1-(oxetan-3-yl)piperidine-4-sulfonamide], on human recombinant HDAC1, the IC50 came to 56.7 µM. Besides, on human recombinant HDAC6, the “HDAC6 selectivity (fold)” value is 3779 fold and the IC50 amounted to 0.015 µM.
For `CC(=O)N1CC(N2CCC(S(=O)(=O)N(Cc3ccc(-c4nnc(C(F)F)o4)cn3)c3ccc(F)c(Cl)c3)CC2)C1` [Compound 11502, 1-(1-acetylazetidin-3-yl)-N-(3-chloro-4-fluorophenyl)-N-((5-(5-(difluoromethyl)-1,3,4-oxadiazol-2-yl)pyridin-2-yl)methyl)piperidine-4-sulfonamide], in that order: 78.1 µM, 5579 fold and 0.014 µM.
Turning to `CS(=O)(=O)N1CC(N2CCC(S(=O)(=O)N(Cc3ccc(-c4nnc(C(F)F)o4)cn3)c3ccc(F)c(Cl)c3)CC2)C1` [Compound 11503, N-(3-chloro-4-fluorophenyl)-N-((5-(5-(difluoromethyl)-1,3,4-oxadiazol-2-yl)pyridin-2-yl)methyl)-1-(1-(methylsulfonyl)azetidin-3-yl)piperidine-4-sulfonamide], the concentration for half-maximal inhibition (IC50) on human recombinant HDAC1 worked out at 71.9 µM; at human recombinant HDAC6, 0.015 µM. The “HDAC6 selectivity (fold)” value at human recombinant HDAC6 came to 4792 fold.
For the molecule `CCS(=O)(=O)N(Cc1ccc(-c2nnc(C(F)F)o2)cn1)c1ccc(Cl)c(C)c1` [Compound 11504, N-(4-chloro-3-methylphenyl)-N-((5-(5-(difluoromethyl)-1,3,4-oxadiazol-2-yl)pyridin-2-yl)methyl)ethanesulfonamide], the concentration for half-maximal inhibition (IC50) at human recombinant HDAC1 amounted to 86.2 µM. Further, at human recombinant HDAC6, the “HDAC6 selectivity (fold)” value turned out to be 4790 fold and the IC50 stood at 0.018 µM.
For the molecule `CCS(=O)(=O)N(Cc1ccc(-c2nnc(C(F)F)o2)cn1)c1ccc(C)c(Cl)c1` [Compound 11505, N-(3-chloro-4-methylphenyl)-N-((5-(5-(difluoromethyl)-1,3,4-oxadiazol-2-yl)pyridin-2-yl)methyl)ethanesulfonamide], the 50% inhibitory concentration (IC50) at human recombinant HDAC1 turned out to be 60.4 µM. In addition, on human recombinant HDAC6, the “HDAC6 selectivity (fold)” value turned out to be 4646 fold and the IC50 turned out to be 0.013 µM.
On the same counts, the results for `CCS(=O)(=O)N(Cc1ccc(-c2nnc(C(F)F)o2)cn1)c1cc(Cl)cc(Cl)c1` [Compound 11506, N-(3,5-dichlorophenyl)-N-((5-(5-(difluoromethyl)-1,3,4-oxadiazol-2-yl)pyridin-2-yl)methyl)ethanesulfonamide] are 59.7 µM, 4977 fold and 0.012 µM.
As for `CCS(=O)(=O)N(Cc1ccc(-c2nnc(C(F)F)o2)cn1)c1ccc(Cl)c(Cl)c1` [Compound 11507, N-(3,4-dichlorophenyl)-N-((5-(5-(difluoromethyl)-1,3,4-oxadiazol-2-yl)pyridin-2-yl)methyl)ethanesulfonamide], on human recombinant HDAC1, the half-inhibitory concentration (IC50) is 51.4 µM. For the same molecule, at human recombinant HDAC6, the “HDAC6 selectivity (fold)” value is given as 3672 fold and the half-maximal inhibitory concentration (IC50) amounted to 0.014 µM.
On to `CCS(=O)(=O)N(Cc1ccc(-c2nnc(C(F)F)o2)cn1)c1cc(C)cc(Cl)c1` [Compound 11508, N-(3-chloro-5-methylphenyl)-N-((5-(5-(difluoromethyl)-1,3,4-oxadiazol-2-yl)pyridin-2-yl)methyl)ethanesulfonamide], for which the IC50 on human recombinant HDAC1 came out at 49.6 µM. On human recombinant HDAC6, the “HDAC6 selectivity (fold)” value turned out to be 2155 fold and the IC50 is 0.023 µM.
`O=S(=O)(CCN1CCCC1)N(Cc1ccc(-c2nnc(C(F)F)o2)cc1F)c1ccc(F)c(Cl)c1` [Compound 11514, N-(3-chloro-4-fluorophenyl)-N-(4-(5-(difluoromethyl)-1,3,4-oxadiazol-2-yl)-2-fluorobenzyl)-2-(pyrrolidin-1-yl)ethane-1-sulfonamide]: at human recombinant HDAC1, the IC50 is 40.3 µM. Further, on human recombinant HDAC6, the “HDAC6 selectivity (fold)” value amounted to 938 fold and the concentration for half-maximal inhibition (IC50) was found to be 0.043 µM.
For `CS(=O)(=O)N(Cc1cnc(-c2nnc(C(F)F)o2)cn1)c1ccccc1` [Compound 11518, N-((5-(5-(difluoromethyl)-1,3,4-oxadiazol-2-yl)pyrazin-2-yl)methyl)-N-phenylmethanesulfonamide], the IC50 at human recombinant HDAC1 was determined as 39.8 µM. In addition, at human recombinant HDAC6, the “HDAC6 selectivity (fold)” value is given as 586 fold and the half-maximal inhibitory concentration (IC50) is 0.068 µM.
For `CCS(=O)(=O)N(Cc1ccc(-c2nnc(C(F)F)o2)cc1F)c1ccc2cnn(C)c2c1` [Compound 11521, N-(4-(5-(difluoromethyl)-1,3,4-oxadiazol-2-yl)-2-fluorobenzyl)-N-(1-methyl-1H-indazol-6-yl)ethanesulfonamide], in that order: 43.3 µM, 2407 fold and 0.018 µM.
As to `CS(=O)(=O)N(Cc1ncc(-c2nnc(C(F)(F)F)o2)cn1)c1ccccc1` [Compound 11565, N-phenyl-N-((5-(5-(trifluoromethyl)-1,3,4-oxadiazol-2-yl)pyrimidin-2-yl)methyl)methanesulfonamide], the IC50 at human recombinant HDAC1 worked out at 46.5 µM. Further, on human recombinant HDAC6, the “HDAC6 selectivity (fold)” value came to 312 fold and the concentration for half-maximal inhibition (IC50) stood at 0.149 µM.
For the molecule `CS(=O)(=O)N(Cc1ccc(-c2nnc(C(F)(F)F)o2)nn1)c1ccccc1` [Compound 11567, N-phenyl-N-((6-(5-(trifluoromethyl)-1,3,4-oxadiazol-2-yl)pyridazin-3-yl)methyl)methanesulfonamide], the IC50 on human recombinant HDAC1 stood at 30.9 µM; at human recombinant HDAC6, 4.33 µM. The “HDAC6 selectivity (fold)” value on human recombinant HDAC6 turned out to be 7 fold.
For `CS(=O)(=O)N(Cc1cnc(-c2nnc(C(F)(F)F)o2)cn1)c1ccccc1` [Compound 11573, N-phenyl-N-((5-(5-(trifluoromethyl)-1,3,4-oxadiazol-2-yl)pyrazin-2-yl)methyl)methanesulfonamide], in that order: 2.54 µM, 2.29 µM and 1 fold.
As for `CN1CCC(S(=O)(=O)N(Cc2ccc(-c3nnc(C(F)F)o3)cc2)c2ccccc2)CC1` [Compound 11637, N-(4-(5-(difluoromethyl)-1,3,4-oxadiazol-2-yl)benzyl)-1-methyl-N-phenylpiperidine-4-sulfonamide], the IC50 on human recombinant HDAC1 is 67 µM. Besides, on human recombinant HDAC6, the “HDAC6 selectivity (fold)” value is listed as 3349 fold and the half-inhibitory concentration (IC50) was 0.02 µM.
On to `CC(C)N1CCC(S(=O)(=O)N(Cc2ccc(-c3nnc(C(F)F)o3)cc2)c2ccccc2)CC1` [Compound 11638, N-(4-(5-(difluoromethyl)-1,3,4-oxadiazol-2-yl)benzyl)-1-isopropyl-N-phenylpiperidine-4-sulfonamide], for which the IC50 on human recombinant HDAC1 was found to be 40.9 µM; on human recombinant HDAC6, 0.023 µM. Further, the “HDAC6 selectivity (fold)” value on human recombinant HDAC6 was determined as 1778 fold.
